Data as given in patent US8263574B2, “Topical formulations for the treatment of depression with S adenosyl methionine” (priority 2004, dated 2012).
Several values for one entry are separate records, joined by “and”; a condition that tells them apart may be missing. Equal values may be shown once. Read-outs that look alike come from different tables or passages of the source.

Assays:
Major Depression = assay: Child case studies: oral SAM-e in Major Depression (Children's Depression Inventory, clinical report); format: in vivo, human
From the text: Two girls were brought in for a consult by a pediatrician and their spouse, a nutritionist. Both parents had studied SAM-e, and preferred “a trial” before traditional anti-depressants.
Case 1. A child (34 kg.) developed increased irritability, boredom, eccentric crying, withdrawal, decreased appetite, middle insomnia, new school performance problems and sadness. They began to discuss death themes and became preoccupied with heaven, despite no new exposures to these topics. They met DSM-IV TR criteria for Major Depression, had no significant stressors in their life, and on the Children's Depression Inventory (CDI) scored a 34.
They were placed on a 200 mg SAM-e enteric-coated tablet each morning, before eating for a week. Subsequently, the dose was raised to 400 mg. […] Improvement began after 4 days on 400 mg. At three weeks, it was increased to 600 mg a day, with rapid and complete resolution of their depressive symptoms in 2 days. […] Their CDI fell to a 4. They have been on this dose for over 6 months.
Case 2. child one (24 kg.) developed new problems with crying, sadness, decreased play, and an inability to be consoled. They made new negative identity comments, i.e., “I'm no good Mommy.” The child was well liked by adults and peers, but felt “no one liked them,” They also began saying they “hated school” even though they were in the top ⅓rd of their class. Their symptoms began 4-5 months after their sibling's MD began. They met DSM-IV TR criteria for Major Depression and on the Children's Depression Inventory scored 29.
Their CDI decreased to 6 and 7. After 3 months, they were “a little sad like before” per their parent, and was increased to 200 mg each am and afternoon with a CDI of 6. They have remained on this dose for over 6 months.
Case 3. A person (86 kg.), unrelated to the girls described above, was diagnosed with Major Depression and Oppositional Defiant Disorder based on DSM-IV TR criteria from a clinical interview with parents and patient. They refused diagnostic scales. Their parents reported a 1½ year history of irritability, boredom, reactivity, decreased interest in all activities but computer games, sadness, excess sleep, fatigue, hopelessness, and trouble concentrating. […] Extensive laboratory testing and family doctor physical exam were negative.
Their mood and function improved to their baseline over 1-2 weeks according to parents, teacher and psychiatrist. Yet they had residual oppositionality. After 2-3 months the youth stopped their SAM-e due to “being sick of all the pills.” They had been taking […] tablets daily. They relapsed over the course of 3 weeks to “½” […] initial baseline depression per patient and parents. Again, they refused quantitative depression scales. Behaviorally, they stopped returning calls, became bored again, and had decreased homework performance with no identifiable new stressors. Restoring the SAM-e to three 400 mg tablets—800 mg per am and 400 after school—restored them to baseline in 5-8 days from parent report confirmed with diagnostic interview. They have remained on this dosing for approximately 22 weeks.

[1] = tested on: patients with Major Depression; settings: cited from earlier work
[2] = tested on: major depressive disorder; settings: cited from earlier work
[3] = infusions of 800 mg, placebo-controlled crossover; cited from earlier work
depressive symptoms = settings: 195 patients, 400 mg intramuscular for 15 days; cited from earlier work

## C[S+](CC[C@H](N)C(=O)O)C[C@H]1O[C@@H](n2cnc3c(N)ncnc32)[C@H](O)[C@@H]1O (some centres unmarked) [SAM-e, S-adenosyl methionine]
Major Depression; Case 1, oral 400 mg
  response over 3 weeks: modest improvement
  time until improvement began: 4 days
Major Depression; Case 1, oral 600 mg a day
  side effects: no signs of mania, anxiety, insomnia, diarrhea, abdominal pain or nausea
  time to complete resolution of depressive symptoms: 2 days
Major Depression; Case 1, oral 600 mg a day, CDI before treatment 34
  Children's Depression Inventory (CDI) on treatment: 4
Major Depression; Case 2 (person one), oral 200 mg
  time to signs of improvement: 2 days
Major Depression; Case 2, oral 200 mg
  side effects: no side effects
  time until at baseline: 11 days
Major Depression; Case 2, oral 200 mg each am and afternoon, after 3 months
  Children's Depression Inventory (CDI) on treatment: 6
Major Depression; Case 2, oral 200 mg, CDI before treatment 29
  Children's Depression Inventory (CDI) on treatment: 6 and 7
Major Depression; Case 3, oral 800 mg per am and 400 after school
  time until restored to baseline after restart: 5 to 8 days
Major Depression; Case 3, oral 1400 mg
  side effects after dose reduction: loss of both side effects
  time until mood and function improved to baseline: 1-2 weeks
Major Depression; Case 3, oral 1800 mg
  side effects: slight tremor and slight anxiety
Major Depression; Case 3, relapse to "½" initial baseline depression
  time course of relapse after stopping SAM-e: 3 weeks
Major Depression; both parents of Cases 1 and 2, 1200-1400 mg per day
  self-reported effect on depression: full remission of their depression
[1]; SAM-e intramuscular 400 mg/d vs. oral IMI 150 mg/d, 4 weeks
  efficacy compared with imipramine: did not differ significantly on any efficacy measure
[1]; both studies
  tolerability compared with imipramine: better tolerated than IMI
[1]; intramuscular (400 mg) and oral SAM-e (1600 mg, 6 weeks) in adults
  efficacy compared with imipramine: comparable to 150 mg of imipramine (IMI)
[2]; 13 trials vs placebo, 19 trials vs tricyclic antidepressants, more than 1,400 patients
  efficacy in major depressive disorder: effective
[2]; intravenous and intramuscular preparations, 14 double-blind European studies
  efficacy in major depression versus placebo and tricyclics: more effective than placebo and comparable to imipramine, amitriptyline and clomipramine
[3]
  EEG / ERP antidepressant effects: effects greater than placebo
Depressive symptoms
  effect on depressive symptoms: remission on both day 7 and 15
